Data reported in BindingDB's records for patent US20250115598 (Anaxis Pharma, 2025).

Experiments:
Assay in all cases: In Vitro Assay
[1] = biological target: T1, Receptor-interacting serine/threonine-protein kinase 1 (Homo sapiens, UniProt Q13546)
T1 sequence (Q13546 whole entry): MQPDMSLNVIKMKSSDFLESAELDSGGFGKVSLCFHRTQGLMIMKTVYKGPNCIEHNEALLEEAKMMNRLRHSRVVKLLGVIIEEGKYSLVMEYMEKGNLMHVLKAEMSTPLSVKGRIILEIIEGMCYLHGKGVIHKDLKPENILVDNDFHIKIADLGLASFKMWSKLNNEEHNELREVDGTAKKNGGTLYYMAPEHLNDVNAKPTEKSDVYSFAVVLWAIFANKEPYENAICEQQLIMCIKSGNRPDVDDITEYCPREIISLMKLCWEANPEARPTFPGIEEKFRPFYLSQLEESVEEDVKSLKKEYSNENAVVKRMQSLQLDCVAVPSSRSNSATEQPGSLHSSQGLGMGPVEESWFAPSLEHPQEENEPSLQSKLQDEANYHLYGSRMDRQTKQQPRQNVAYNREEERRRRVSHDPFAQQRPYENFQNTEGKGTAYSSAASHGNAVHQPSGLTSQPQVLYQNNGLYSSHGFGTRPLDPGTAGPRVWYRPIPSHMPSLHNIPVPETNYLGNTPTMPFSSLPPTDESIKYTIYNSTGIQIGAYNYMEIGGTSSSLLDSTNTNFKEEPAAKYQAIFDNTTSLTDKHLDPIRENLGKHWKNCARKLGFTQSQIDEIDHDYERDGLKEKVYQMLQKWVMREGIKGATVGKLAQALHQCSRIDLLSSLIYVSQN
Experimental: (§1) Binding affinity of the test compounds for human MLKL (full length), mouse MLKL (full length), human RIPK1 and human RIPK3 was determined using the KINOMEscan™ technology developed by DiscoverX (USA; http://www.discoverx.com). The assay was conducted according to manufacturer instructions.

[2] = biological target: Receptor-interacting serine/threonine-protein kinase 3 (Homo sapiens, UniProt Q9Y572)
Receptor-interacting serine/threonine-protein kinase 3, sequence (Q9Y572 whole entry): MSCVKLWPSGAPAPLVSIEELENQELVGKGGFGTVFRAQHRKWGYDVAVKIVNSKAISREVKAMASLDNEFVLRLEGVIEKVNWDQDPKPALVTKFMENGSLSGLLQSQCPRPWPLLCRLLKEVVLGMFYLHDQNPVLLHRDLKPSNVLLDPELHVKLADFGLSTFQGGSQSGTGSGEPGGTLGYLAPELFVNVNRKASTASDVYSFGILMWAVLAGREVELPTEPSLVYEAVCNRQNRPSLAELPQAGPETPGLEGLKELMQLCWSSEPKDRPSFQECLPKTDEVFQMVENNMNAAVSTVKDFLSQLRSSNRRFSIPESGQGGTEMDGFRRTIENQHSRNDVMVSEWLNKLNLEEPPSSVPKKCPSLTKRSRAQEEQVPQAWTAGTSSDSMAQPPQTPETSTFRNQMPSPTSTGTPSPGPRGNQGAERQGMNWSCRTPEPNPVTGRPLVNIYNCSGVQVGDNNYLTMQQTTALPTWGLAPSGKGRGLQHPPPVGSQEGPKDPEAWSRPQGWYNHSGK
Experimental: as §1

[3] = biological target: T2, Mixed lineage kinase domain-like protein (Homo sapiens, UniProt Q8NB16)
T2 sequence (Q8NB16 whole entry): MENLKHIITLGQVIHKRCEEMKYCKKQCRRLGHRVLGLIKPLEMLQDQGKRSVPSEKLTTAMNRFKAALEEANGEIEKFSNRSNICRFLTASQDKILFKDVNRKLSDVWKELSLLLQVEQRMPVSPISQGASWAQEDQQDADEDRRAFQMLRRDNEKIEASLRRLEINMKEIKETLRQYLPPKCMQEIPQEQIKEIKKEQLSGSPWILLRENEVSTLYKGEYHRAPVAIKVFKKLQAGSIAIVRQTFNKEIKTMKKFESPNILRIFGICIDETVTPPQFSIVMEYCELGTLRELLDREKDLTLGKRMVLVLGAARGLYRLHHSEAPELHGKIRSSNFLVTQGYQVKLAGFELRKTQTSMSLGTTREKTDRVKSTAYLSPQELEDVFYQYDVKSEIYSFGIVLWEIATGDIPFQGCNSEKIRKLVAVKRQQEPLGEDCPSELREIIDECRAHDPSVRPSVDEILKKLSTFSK
Experimental: as §1

Nc1ncc(-c2cnn(C3CCOCC3)c2)c2occ(-c3ccc(NS(=O)(=O)C(F)F)c(OCc4ccc(F)cc4)c3)c12 [US20250115598, Compound 5] showed a Kd [1] greater than 2.5 µM and a Kd [2] greater than 2.5 µM.
In the case of Cn1nc(-c2ccc(NS(=O)(=O)C(F)F)c(OCc3ccc(F)cc3)c2)c2c(N)ncc(-c3ccncc3)c21 [US20250115598, Compound 14], the Kd [1] is reported as greater than 2.5 µM and the Kd [2] is reported as greater than 2.5 µM.
C[C@H](Oc1cc(-c2nn(C)c3c(C4=CCCN(C)C4)cnc(N)c23)ccc1NS(=O)(=O)C(F)F)c1ccc(F)cc1 [US20250115598, Compound 55] showed a Kd [1] greater than 2.5 µM and a Kd [2] greater than 2.5 µM.
For C[C@H](Oc1cc(-c2nn(C)c3c(-c4cnn(CCC(F)(F)F)c4)cnc(N)c23)ccc1NS(=O)(=O)C(F)F)c1ccc(F)cc1 [US20250115598, Compound 113], the Kd [3] was less than 0.05 µM.
Compound COc1ccc([C@H](C)Oc2cc(-c3nn(C)c4c(-c5cnn(C6CCOCC6)c5)cnc(N)c34)ccc2NS(=O)(=O)C(F)F)cc1 [US20250115598, Compound 129] has a Kd [1] greater than 2.5 µM and a Kd [2] greater than 2.5 µM.
Work on C[C@H](Oc1cc(-c2nn(C)c3c(-c4cnn(C5CCOCC5)c4)cnc(N)c23)ccc1NS(=O)(=O)C(F)F)c1ccc(F)cc1 [US20250115598, Compound 135] yielded a Kd [1] greater than 2.5 µM and a Kd [2] greater than 2.5 µM.
C[C@H](Oc1cc(-c2nn(C)c3c(-c4cnn(C5CCN(C)C(C(F)F)C5)c4)cnc(N)c23)ccc1NS(=O)(=O)C(F)F)c1ccc(F)cc1 (stereo partly drawn) [US20250115598, Compound 158] gave a Kd [1] greater than 2.5 µM and a Kd [2] greater than 2.5 µM.
